In patent US20250276036A1, “COMPOSITION FOR THE INHIBITION OF NRF2 AND USES THEREOF IN CANCER THERAPY” (Sunshine Biopharma Inc., priority 2022, published 2025):

Assays:
[1] = tested on: Human Mammary Epithelial Cells (HMEC); assay: Cell viability (CellTiter-Glo) after mRNA transfection, HMEC; type: cell-based; conditions: HMEC, 0, 3 and 9 ng mRNA per 1000 cells, 48 hours transfection
Method: (§1) The synthetic mRNA produced in Example 1 is transfected in cancer cells using the Lipofectamine MessengerMAX™ Transfection Reagent.
(§2) Human Mammary Epithelial Cells (HMEC), which are non-cancer cells were compared to MCF7 cancer cells. The HMEC cells and MCF7 cancer cells were transfected for 48 hours with 0, 0.3, 1, 3 and 9 ng of KEAP1 mRNA, or a control cLUC mRNA, per 1000 cells and their respective survival were compared. The cells viability was measured using the CellTiter-Glo® assay from Promega®. […] Now referring to FIG. 4, cell viability of MCF7 cells was affected by KEAP1 mRNA, but the viability of the HMEC cells was unaffected by KEAP1 mRNA.

OVCAR3 epithelial cells = assay: Cell viability (CellTiter-Glo) after mRNA transfection, OVCAR3; type: cell-based, human
Method: as §1
(§3) OVCAR3 epithelial cells isolated from malignant ascites of a patient with progressive adenocarcinoma of the ovary, and SUIT2 human pancreatic cancer cell lines are transfected for […] with 0, 0.3, 1, 3 and 9 ng of KEAP1 mRNA, or with 0, 0.3, 1, 3 and 9 ng of a control Cypridina luciferase (cLUC)(SEQ ID NO: 10) mRNA, per 1000 cells. The cells viability was measured using the CellTiter-Glo® assay from Promega®. In-cell Western analysis is used to detect the presence of KEAP1.

[2] = tested on: MCF7 human breast adenocarcinoma cell line; assay: Cell viability (CellTiter-Glo) after mRNA transfection, MCF7; type: cell-based
Method: (§4) The goal of these experiments is to evaluate the transfectability of various cell lines, as well as evaluate the role of KEAP1 as a tumor cells sensitizer, evaluate its role in decreasing the viability of tumor cells. The synthetic mRNA produced in Example 1, or the cLUC mRNA are transfected in cancer cells using the Lipofectamine MessengerMAX™ Transfection Reagent, ThermoFisher™, Cat No: LMRNA001. 0, 0.3, 1, 3 or 9 ng of either mRNA is used per 1000 cells.
(§5) MCF7 and MCF7/MDR human breast adenocarcinoma cell lines are transfected for 48 hours with 0, 0.3, 1, 3 and 9 ng of KEAP1 mRNA, or with 0, 0.3, 1, 3 and 9 ng of a control Cypridina luciferase (cLUC) (SEQ ID NO: 10) mRNA. The cells viability was measured using the CellTiter-Glo® assay from Promega®. KEAP1 mRNA specific effects on MCF7 and MCF7/MDR cells survival were observed when cells were transfected with 0, 0.3, 1, 3 and 9 ng of KEAP1 mRNA.
(§6) MCF7 and MCF7/MDR human breast adenocarcinoma cell lines are transfected for 48 hours with 0, 1 and 3 ng of KEAP1 mRNA, or with 0, 1 and 3 ng of a control Cypridina luciferase (cLUC) mRNA, per 1000 cells. The cells viability was measured using the CellTiter-Glo® assay from Promega®. In-cell Western analysis is used to detect the presence of KEAP1.
as §2

[3] = tested on: SUIT2 human pancreatic cancer cell line; assay: Cell viability (CellTiter-Glo) after mRNA transfection, SUIT2; type: cell-based; conditions: SUIT2, 0, 3 and 9 ng mRNA per 1000 cells
Method: as §1, §3

[4] = tested on: MCF7/MDR human breast adenocarcinoma cell line; assay: Cell viability (CellTiter-Glo) after mRNA transfection, MCF7/MDR; type: cell-based; conditions: for % Cell survival: MCF7/MDR, 48 hours transfection (Example 3)
Method: as §4, §5, §6

cLUC mRNA: control Cypridina luciferase (cLUC) (SEQ ID NO: 10) mRNA
% Cell survival [1]: Resistant | % Cell survival (OVCAR3 epithelial cells; OVCAR3, 3 ng mRNA per 1000 cells): 90% | % Cell survival (OVCAR3 epithelial cells; OVCAR3, 9 ng mRNA per 1000 cells): 80% | effect on cell survival / viability ([2]; MCF7, 0, 0.3, 1, 3 and 9 ng mRNA per 1000 cells, 48 hours (FIG. 2)): little effect on cell survival unless a large amount of 9 ng was transfected | % Cell survival ([2]; MCF7, 1 ng mRNA per 1000 cells, 48 hours transfection (Example 3)): 100% | % Cell survival ([2]; MCF7, 3 ng mRNA per 1000 cells, 48 hours transfection (Example 3)): 55% | % Cell survival ([2]; MCF7, 3 ng mRNA per 1000 cells, 48 hours transfection (Example 4, Table 2)): 100% | % Cell survival ([2]; MCF7, 9 ng mRNA per 1000 cells, 48 hours transfection (Example 4, Table 2)): 55% | % Cell survival [3]: Resistant | effect on cell survival / viability ([4]; MCF7/MDR, 0, 0.3, 1, 3 and 9 ng mRNA per 1000 cells, 48 hours (FIG. 2)): little effect on cell survival unless a large amount of 9 ng was transfected | % Cell survival ([4]; 1 ng mRNA per 1000 cells): 100% | % Cell survival ([4]; 3 ng mRNA per 1000 cells): 55%
